The source of these data is patent publication US20230357253A1, “AGONISTS OF STIMULATOR OF INTERFERON GENES STING” (THE SCRIPPS RESEARCH INSTITUTE, priority 2020, published 2023).

pEC50, pIC50: −log10 of the molar value.

One test concerns the target human STING protein (Homo sapiens (Human), UniProt Q86WV6). Briefly: WT STING binding assay (HTRF, competition with labeled 2′3′cGAMP). The settings on record: recombinant 6×His-tagged human STING, three hours at room temperature. Put shortly:
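Competitive HTRF binding: 10-point compound titration incubated 3 h at room temperature with 6×His-tagged human STING and labeled 2′3′cGAMP; FRET read at 665 nm. IC50 by curve fitting; percent inhibition relative to maximal binding of unlabeled 2′3′cGAMP control.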
(In general: Time-resolved FRET reads energy transfer from a long-lived donor to a nearby acceptor.)

The next test has as its system THP-1 Lucia ISG cells. Briefly: ISRE-luciferase assay (ISG-LUC activation). The format is cell-based. The settings on record: Homo sapiens, THP1-Lucia ISG, 24 hours, luciferase reporter. The gist of the method: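 THP-1 Lucia ISG cells at 5×10^5 cells/ml in 2% FBS medium were treated with test article or DMSO vehicle for 24 h. Secreted luciferase was read by luminescence and normalized to vehicle, reported as RLU.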
On the technique in general: Reporter assays use an easily measured gene product as a stand-in for the process of interest.

human STING protein, sequence (Q86WV6 whole entry): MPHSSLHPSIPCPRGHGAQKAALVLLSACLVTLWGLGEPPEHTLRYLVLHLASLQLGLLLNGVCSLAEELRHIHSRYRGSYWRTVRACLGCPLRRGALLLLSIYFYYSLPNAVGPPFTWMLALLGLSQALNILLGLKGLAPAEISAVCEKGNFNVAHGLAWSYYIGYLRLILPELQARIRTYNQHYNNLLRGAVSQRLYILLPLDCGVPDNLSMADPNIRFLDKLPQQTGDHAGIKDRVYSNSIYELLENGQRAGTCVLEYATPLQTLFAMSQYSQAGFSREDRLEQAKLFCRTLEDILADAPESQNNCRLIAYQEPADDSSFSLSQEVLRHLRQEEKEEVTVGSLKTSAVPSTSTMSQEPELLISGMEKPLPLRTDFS

One may read the pIC50 as the IC50 on a negative log10 scale, so that one unit is a factor of ten. Usually pEC50 stands for the negative decadic logarithm of the EC50, by convention in mol/L. A lower pEC50 goes with a high EC50. As to `O=C(Nc1cc(CCOc2cc(NC(=O)c3ccc4nnnn4n3)c(C(=O)O)cc2F)c(Cl)cc1C(=O)O)c1ccc(-n2ccnc2)nn1` [Compound 196], the pIC50 on human STING protein is 7.00 to 8.00. The pEC50 in the test with THP-1 Lucia ISG cells is 6.30 to 7.30.

Consider `O=C(Nc1cc(CCOc2cc(NC(=O)c3ccc(-n4ccnc4)nn3)c(C(=O)O)cc2Cl)c(F)cc1C(=O)O)c1ccc(-n2ccnc2)nn1` [Compound 197], for which the pIC50 at human STING protein was 7.00 to 8.00. This compound also showed a pEC50 in the test on THP-1 Lucia ISG cells of 6.30 to 7.30.

Turning to `O=C(Nc1cc(CCCCc2cc(NC(=O)c3ccc(-n4ccnc4)nn3)c(C(=O)O)cc2F)c(F)cc1C(=O)O)c1ccc(-n2ccnc2)nn1` [Compound 202], at human STING protein, the pIC50 is 7.00 to 8.00. The same compound gave a pEC50 in the test on THP-1 Lucia ISG cells of 6.30 to 7.30.

Turning to `O=C(Nc1cc(OCCCOc2cc(NC(=O)c3ccc(-n4ccnc4)nn3)c(C(=O)O)cc2F)ccc1C(=O)O)c1ccc(-n2ccnc2)nn1` [Compound 203], at human STING protein, the pIC50 is 7.00 to 8.00. Moreover, the negative logarithm of the EC50 (pEC50) in the test with THP-1 Lucia ISG cells was 5.30 to 6.30.
